Literature values as cited in US20020198176A1, “Treatment of psoriasis with matrix metalloproteinase inhibitors” (priority 2000, published 2002).

Tested on: MMP
Conditions: in vitro; read-out: IC50 (50% reduction of the MMP enzymatic activity in vitro)

IC50: 2.2 to 60 µM
SMILES: O=C(C[C@H](CSc1ccccc1)C(=O)O)c1ccc(-c2ccc(Cl)cc2)cc1 [BAY 12-9566]
